The subject of one data set is P. falciparum CQ^S (3D7). Format: cell-based, Plasmodium falciparum. The settings on record: read-out: IC50 CQ^S (3D7); CQ sensitive strain; primary screening.
For another data set, the system named is P. falciparum CQ^R (K1). In words: microbe, parasite or virus in culture. Format: cell-based, Plasmodium falciparum.
Data set [1] concerns Madin Darby canine kidney (MDCK) cells.
The conditions of data set [2]: pH 5.8; cited from earlier work.
The conditions of data set [3]: pH 5.6; cited from earlier work.
The format of data set [4] is binding. The note with it: heme 2.4 μM, DMSO:H2O/4:6, v/v; increasing compound concentration.
The target in the next data set is GC rich CT DNA. Format: binding, calf.

By IC50 is commonly meant the concentration that inhibits the measured activity by half. As usually defined, the CC50 is the concentration giving 50% cytotoxicity. A low value points to greater toxicity to the cells.

Like-named read-outs stand apart in the source and are kept apart here. Marks after values point to notes of the source that are not given here.

Regarding “5-Ethoxycarbonyl-6-methyl-4-phenyl-2-[5-(7-chloroquinolin-4-ylamino)-2-methylpentylamino] pyrimidine [Compound 10k]”, the IC50 in the data set on P. falciparum CQ^S (3D7) stood at 287 nM; in the data set with P. falciparum CQ^R (K1) (read-out: IC50 CQ^R (K1)) it was 860 nM. Turning to `NC12CC3CC(CC(C3)C1)C2` [Amantadine, reference compound], the “Cytotoxicity MIC” value in data set [1] (dog) is “h 50% cytotoxic concentration, as determined by measuring the cell viability with the colorimetric formazan- based MTS assay (reference drugs used: Oseltamivir carboxylate CC50/MIC >100, Ribavirin CC50/MIC >100, Amantadine CC50/MIC >200 and Rimantadine CC50/MIC >200). μM”. On to `CCN(CC)CCCC(C)Nc1ccnc2cc(Cl)ccc12` (stereo not drawn) [Compound 2, chloroquine, reference compound], for which, in data set [2], the “μ-oxo heme log K” value was 5.6 ^c. Also, the “Monomeric heme log K” value in data set [3] is recorded as 4.82. In the data set on P. falciparum CQ^R (K1) (Plasmodium falciparum, K1, read-out: IC50 CQ^R (K1)), the IC50 was determined as 202 nM.

In the case of `CCOC(=O)c1c(C)nc(NCCNc2ccnc3cc(Cl)ccc23)nc1-c1ccccc1` [Compound 10a, 5-Ethoxycarbonyl-6-methyl-4-phenyl-2-[(7-chloroquinolin-4-ylamino)ethylamino] pyrimidine], the “Cytotoxicity MIC” value in data set [1] (dog) stood at 0.8 µM. Still for that read-out and setting: under `CCOC(=O)c1c(C)nc(NCCCNc2ccnc3cc(Cl)ccc23)nc1-c1ccccc1` [Compound 10b, 5-Ethoxycarbonyl-6-methyl-4-phenyl-2-[(7-chloroquinolin-4-ylamino)propylamino]pyrimidine] stands 0.8 µM. The same measure, in the same setting: under `CCOC(=O)c1c(C)nc(NCCCCNc2ccnc3cc(Cl)ccc23)nc1-c1ccccc1` [Compound 10c, 5-Ethoxycarbonyl-6-methyl-4-phenyl-2-[(7-chloroquinolin-4-ylamino)butylamino]pyrimidine] stands 0.8 µM. Turning to `CCOC(=O)c1c(C)nc(Nc2ccccc2Nc2ccnc3cc(Cl)ccc23)nc1-c1ccccc1` [Compound 10h, 5-Ethoxycarbonyl-6-methyl-4-phenyl-2-[2-(7-chloroquinolin-4-ylamino)phenylamino] pyrimidine], the “change in heme absorbance at 402 nm on titration” value in data set [4] is recorded as “no change in the absorbance at 402 nm”.

As for `CCOC(=O)c1c(C)nc(Nc2ccc(Nc3ccnc4cc(Cl)ccc34)cc2)nc1-c1ccccc1` [Compound 10i, 5-Ethoxycarbonyl-6-methyl-4-phenyl-2-[4-(7-chloroquinolin-4-ylamino)phenylamino] pyrimidine], the “change in heme absorbance at 402 nm on titration” value in data set [4] is reported as “marked gradual decrease in absorbance at 402 nm”.

Turning to `CCOC(=O)c1c(C)nc(NCCCNc2ccnc3cc(Cl)ccc23)nc1C` [Compound 10l, 5-Ethoxycarbonyl-6-methyl-4-methyl-2-[(7-chloroquinolin-4-ylamino)propylamino]pyrimidine], the “Cytotoxicity MIC” value in data set [1] (dog) was found to be 20 µM. With `CCOC(=O)c1c(C)nc(NCCCCNc2ccnc3cc(Cl)ccc23)nc1C` [Compound 10m, 5-Ethoxycarbonyl-6-methyl-4-methyl-2-[(7-chloroquinolin-4-ylamino)butylamino]pyrimidine], in data set [1] (dog), the “Cytotoxicity MIC” value was 4 µM. On the same count and under the same terms, as for `Cc1nc(NCCCNc2ccnc3cc(Cl)ccc23)nc(-c2cccc([N+](=O)[O-])c2)c1C(=O)OC(C)C` [Compound 10n, 5-Isopropyloxycarbonyl-6-methyl-4-(3-nitrophenyl)-2-[(7-chloroquinolin-4-ylamino)propylamino]pyrimidine], the figure is 0.8 µM; as for `Cc1nc(NCCNc2ccnc3cc(Cl)ccc23)nc(-c2ccccc2[N+](=O)[O-])c1C(=O)OC(C)C` [Compound 10p, 5-Isopropyloxycarbonyl-6-methyl-4-(2-nitrophenyl)-2-[(7-chloroquinolin-4-ylamino)ethylamino] pyrimidine], at least 0.8 µM.

Turning to `Cc1nc(NCCCCNc2ccnc3cc(Cl)ccc23)nc(-c2ccccc2[N+](=O)[O-])c1C(=O)OC(C)C` [Compound 10r, 5-Isopropyloxycarbonyl-6-methyl-4-(2-nitrophenyl)-2-[(7-chloroquinolin-4-ylamino)butylamino] pyrimidine], in data set [1] (dog), the “Cytotoxicity MIC” value is 4.0 µM. The “binding constant (log K) from fluorescence data, CT DNA” value at GC rich CT DNA was 4.67.

As for `NC(=O)c1ncn([C@@H]2O[C@H](CO)[C@@H](O)[C@H]2O)n1` [Ribavirin, reference compound], the “Cytotoxicity MIC” value in data set [1] (dog) is “h 50% cytotoxic concentration, as determined by measuring the cell viability with the colorimetric formazan- based MTS assay (reference drugs used: Oseltamivir carboxylate CC50/MIC >100, Ribavirin CC50/MIC >100, Amantadine CC50/MIC >200 and Rimantadine CC50/MIC >200). μM”. Same read-out and setting: as for `CC(N)C12CC3CC(CC(C3)C1)C2` (stereo not drawn) [Rimantadine, reference compound], the entry is “h 50% cytotoxic concentration, as determined by measuring the cell viability with the colorimetric formazan- based MTS assay (reference drugs used: Oseltamivir carboxylate CC50/MIC >100, Ribavirin CC50/MIC >100, Amantadine CC50/MIC >200 and Rimantadine CC50/MIC >200). μM”. On to “Oseltamivir carboxylate [reference compound]”, for which, in data set [1], the CC50 is over 100 µM; the “Cytotoxicity MIC” value was “h 50% cytotoxic concentration, as determined by measuring the cell viability with the colorimetric formazan- based MTS assay (reference drugs used: Oseltamivir carboxylate CC50/MIC >100, Ribavirin CC50/MIC >100, Amantadine CC50/MIC >200 and Rimantadine CC50/MIC >200). μM”.

The values above are taken from paper PMC7115513 (European Journal of Medicinal Chemistry, 2012).
